{
  "source": "patent US20230230698A1",
  "about": "“ANTIMICROBIAL CHOICE ALGORITHM FOR URINARY TRACT INFECTIONS” (Northwestern University, priority 2020, published 2023)",
  "key": {"uropathogen [1]": {"system": "uropathogen", "test": "Urine culture antimicrobial susceptibility (Vitek 2), outpatients with complicated UTI", "assay_type": "cell-based", "settings": "for Overall prevalence of resistance: complicated UTI outpatients, 2012-2018, 2,286 cultures (>=10^3 CFU/mL), resistant or intermediate susceptibility; for proportion of patients resistant: complicated UTI, 2017-2018 testing cohort, 646 patients, Chicago ZIP code", "excerpt": "Materials and Methods: We performed a retrospective, single-center, cross-sectional study of 2,286 outpatients with a diagnosed complicated UTI from 2012-2018. For patients with confirmed UTI (≥10^3 CFU/mL) with antimicrobial sensitivities, univariate analyses and multivariable regression models were used to determine odds ratios for predicting resistance to SXT, NIT, CIP, CF-1, and CF-3 for the 2012-2016 data. Antimicrobial choice algorithms were created using 2012-2016 results and tested on 2017-2018 data.\nThis study was approved and performed in accordance with the Northwestern Medicine Institutional Review Board (STU00207763). This is a retrospective cross-sectional study of patients aged 18 or older that submitted urine cultures as outpatients from 2012 to 2018 at any Northwestern Medicine site, which encompasses the greater Chicago area. Data were obtained from the Northwestern Medicine Enterprise Data Warehouse, which is a data integration warehouse designed for research and clinical operations. […] Patients and cultures were included only if they were linked to any ICD 9 or 10 diagnosis code in the previous two years that would have been associated with a complicated UTI^6. Patients were included exactly once based on their most recent culture, and all prior culture data were used as covariates. […] Cultures were included in analysis if positive (identified uropathogen≥10^3 colony forming units per milliliter (CFU/mL)) and antimicrobial susceptibilities were reported for the dominant species. All specimen collection and testing were done uniformly in accordance with Northwestern Medicine Guidelines. Isolation, colony count and identification testing were performed using Vitek 2 cards (bioMérieux).\nFor the 2012 to 2016 patients, outcomes of interest were uropathogen resistance (defined as resistant or intermediate susceptibility) to trimethoprim-sulfamethoxazole (SXT), ciprofloxacin (CIP), nitrofurantoin (NIT), first-generation cephalosporin (CF-1) and third-generation cephalosporin (CF-3). The resistance prevalence was also stratified by Chicago ZIP code for each antimicrobial.\nThe algorithms developed using the above-described cohort were then tested on the 2017-2018 cohort. […] Also, the predictive value of time between cultures and uropathogen concurrence between cultures was examined in this cohort^10,17. All analyses were done using R (version 3.5.2)."}, "uropathogen [2]": {"system": "uropathogen", "test": "Urine culture antimicrobial susceptibility (Vitek 2), women outpatients with uncomplicated UTI", "assay_type": "cell-based", "settings": "for proportion with culture susceptible, theoretical scenario of all patients receiving the drug / proportion with culture susceptible if everyone was prescribed the drug: 2018 cohort; for proportion with culture susceptible, theoretical scenario of all patients receiving the drug: 258 patients with prior microbiologic data; for proportion with culture susceptible, theoretical scenario of all patients being prescribed the drug: 2018 cohort, 1,169 patients without prior microbiologic data; for proportion with culture susceptible if everyone was prescribed the drug: all 1,427 patients; for Overall prevalence of resistance / proportion of patients resistant: uncomplicated UTI; for Overall prevalence of resistance: 2011-2017 cohort, 9,455 positive cultures (>=10^3 CFU/mL), resistant or intermediate susceptibility; for proportion of patients resistant: 2018 testing cohort, 1,427 women, Chicago ZIP code", "excerpt": "Data were obtained from the Northwestern Medicine Enterprise Data Warehouse, which is a data integration warehouse designed for research and clinical operations. […] Cultures were included in analysis if positive (identified uropathogen≥10^3 colony forming units per milliliter (CFU/mL)) and antimicrobial susceptibilities reported for the dominant species. The colony count cutoff of ≥10^3 CFU/mL was used as it has been noted that low thresholds have appropriate diagnostic value for women with symptoms of a UTI.^5, 17, 18 The Northwestern Medicine Institutional Review Board approved this study (STU00207763).\nAll specimen collection and testing were done uniformly in accordance with Northwestern Medicine Guidelines. Isolation, colony count and identification testing were performed using Vitek 2 cards (bioMérieux).\nFor the 2011-2017 patients, outcomes of interest were uropathogen resistance (defined as resistant or intermediate susceptibility) to SXT, NIT and CIP. Covariates were patient demographics (age, race and patient's place of residence (ZIP code)) antimicrobial prescriptions within the past two years, diagnosis codes associated with current and past encounters, past urine culture results and department to which they presented. Risk factors were compared between patients who had resistant and sensitive cultures using two-sample t-tests (continuous variables) and chi-squared tests (categorical variables). Multivariate logistic regression models were used to investigate the association between risk factors and resistant cultures. Odds ratios (OR) were derived from these models to determine the probability of having a resistant culture with those factors.\nThe algorithms developed using the above-described cohort were then tested on the 2018 cohort. […] All analyses were done using R (version 3.5.2)."}, "uropathogen [3]": {"system": "uropathogen", "settings": "2018, both inpatient and outpatient cultures; cited from earlier work"}, "uropathogen [4]": {"system": "uropathogen", "test": "Resistance in community acquired UTIs, uncomplicated and complicated combined", "assay_type": "cell-based", "settings": "2018", "excerpt": "The prevalence of resistance for patients with complicated UTIs was compared to data from our previous publication for uncomplicated UTIs and available hospital data^17. The prevalence of resistance by ZIP code for the complicated UTI population was then compared between each antibiotic and to the distribution of prevalence by ZIP code for the uncomplicated population for the previous study, for CIP, SXT and NIT (the three antimicrobials evaluated in the previous study)^17."}},
  "note": "Read-outs that look alike come from different tables or passages of the source.",
  "data": [
    {"compound": "O=C1CN(/N=C/c2ccc([N+](=O)[O-])o2)C(=O)N1", "note": "[NIT, nitrofurantoin]", "values": [
      {"measurement": "Overall prevalence of resistance", "setting": "uropathogen [1]", "value": 18.9, "unit": "%"},
      {"measurement": "proportion of patients resistant", "setting": "uropathogen [1]", "value": 18.1, "unit": "%"},
      {"measurement": "proportion with culture susceptible, theoretical scenario of all patients receiving the drug", "setting": "uropathogen [2]", "value": 93.8, "unit": "%"},
      {"measurement": "proportion with culture susceptible, theoretical scenario of all patients being prescribed the drug", "setting": "uropathogen [2]", "value": 89.2, "unit": "%"},
      {"measurement": "proportion with culture susceptible if everyone was prescribed the drug", "setting": "uropathogen [2]", "value": 90.0, "unit": "%"},
      {"measurement": "Overall prevalence of resistance", "setting": "uropathogen [2]", "value": 12.1, "unit": "%"},
      {"measurement": "proportion of patients resistant", "setting": "uropathogen [2]", "value": 10.0, "unit": "%"}
    ]},
    {"compound": "O=C(O)c1cn(C2CC2)c2cc(N3CCNCC3)c(F)cc2c1=O", "note": "[CIP, ciprofloxacin]", "values": [
      {"measurement": "Overall prevalence of resistance", "setting": "uropathogen [3]", "value": 25, "unit": "%"},
      {"measurement": "resistance, complicated UTI", "setting": "uropathogen [1]; 2018, community acquired", "value": 16.2, "unit": "%"},
      {"measurement": "Overall prevalence of resistance", "setting": "uropathogen [1]", "value": 19.4, "unit": "%"},
      {"measurement": "proportion of patients resistant", "setting": "uropathogen [1]", "value": 18.4, "unit": "%"},
      {"measurement": "resistance for community acquired UTIs, both uncomplicated and complicated", "setting": "uropathogen [4]", "value": 11.2, "unit": "%"},
      {"measurement": "Overall prevalence of resistance", "setting": "uropathogen [2]", "value": 10.3, "unit": "%"},
      {"measurement": "proportion of patients resistant", "setting": "uropathogen [2]", "value": 10.7, "unit": "%"}
    ]},
    {"compound": "trimethoprim-sulfamethoxazole [SXT]", "values": [
      {"measurement": "Overall prevalence of resistance", "setting": "uropathogen [1]", "value": 25.5, "unit": "%"},
      {"measurement": "proportion of patients resistant", "setting": "uropathogen [1]", "value": 25.9, "unit": "%"},
      {"measurement": "proportion with culture susceptible, theoretical scenario of all patients receiving the drug", "setting": "uropathogen [2]", "value": 72.1, "unit": "%"},
      {"measurement": "proportion with culture susceptible, theoretical scenario of all patients being prescribed the drug", "setting": "uropathogen [2]", "value": 79.3, "unit": "%"},
      {"measurement": "proportion with culture susceptible if everyone was prescribed the drug", "setting": "uropathogen [2]", "value": 78.0, "unit": "%"},
      {"measurement": "Overall prevalence of resistance", "setting": "uropathogen [2]", "value": 19.4, "unit": "%"},
      {"measurement": "proportion of patients resistant", "setting": "uropathogen [2]", "value": 22.0, "unit": "%"}
    ]}
  ]
}
